Reference: patent US12594263B2, “CBL inhibitors and compositions for expansion of immune cells” (Nurix Therapeutics, Inc., priority 2019, dated 2026)

Tested on: E.G7-OVA tumors
Test: Oral Cbl inhibitor treatment of mice given expanded OT-1 cells
Type: in vivo, mouse
Description: Tumor volume was measured roughly every five days after cell transfer.
OT-1 cells were assessed in mouse blood 5 days and 20 days after transfer.

[1] = 5 days and 20 days after transfer (FIGS. 20A, 20B)

Q: How did the “Frequency of OT-1 cells in mouse blood” value [1] turn out when `C[C@H]1CCCN(Cc2cc3c(c(C(F)(F)F)c2)CN(c2cccc([C@]4(c5nncn5C)C[C@@H](C)C4)c2)C3=O)C1` [Compound 116] was run?
A: increased frequency of OT-1 cells

Q: And the “Persistence of OT-1 cells in mouse blood” value [1]?
A: longer persistence of OT-1 cells

Q: What about the “Anti-tumor efficacy of OT-1 cells expanded with compound 103 plus IL-2 (tumor volume)” value (oral administration (FIG. 18)) of the same compound?
A: enhanced the anti-tumor efficacy

Q: What about the “Survival of mice treated with OT-1 cells expanded with compound 103 plus IL-2” value (oral administration (FIG. 19)) of the same compound?
A: enhanced survival
